Values quoted from earlier work as cited in US20230228766A1, “SERUM BIOMARKERS FOR PREDICTING AND PREVENTING HEMORRHAGIC STROKE” (Texas Tech University System, priority 2020, published 2023).

Settings: free PRG in blood

half-life of free, active form in blood: 5 to 10 min
SMILES: CC(=O)[C@H]1CC[C@H]2[C@@H]3CCC4=CC(=O)CC[C@]4(C)[C@H]3CC[C@]12C [PRG, progesterone]
